Experimental data: patent US9676811B2, “Testosterone derivatives with a carboxyalkyl substitution in position 3 and use thereof for the production of labelled steroids for determining the concentration of testosterone in a biological sample” (BIOMERIEUX, priority 2012, dated 2017)

Assays:
Format in all cases: binding
[1] = tested on: anti-testosterone antibody Ab3 (sheep monoclonal IgG, clone testo3.6A3); experiment: VIDAS® competitive testosterone immunoassay, format Ab3 + Conjugate 1 of the invention; conditions: for B/B0% / Signal (RFV): conjugate 2.5 ng/ml
Protocol: (§1) Competition then takes place between the testosterone present in the sample and the testosterone derivative of the conjugate for the sites of the anti-testosterone antibody fixed on the cone. The washing steps are carried out with the buffer Tris-NaCl (0.05 mol/l) pH 7.4 or with diethanolamine (1.1 mol/1) pH 9.8 and make it possible to remove the compounds that are not fixed. During the final development step, the substrate 4-methylombelliferyl phosphate is aspirated and then introduced into the cone; the enzyme of the conjugate catalyzes the reaction of hydrolysis of this substrate in 4-methylombelliferone, and the fluorescence emitted from the latter is measured at 450 nm. The value of the fluorescence signal is inversely proportional to the concentration of the testosterone present in the sample. This concentration is calculated relative to a calibration curve.
(§2) For the other assays, we used the reagents of the VIDAS® testosterone kit (Cat. No 30418) and the assay protocol given in the instructions with the kit, with the following modifications: • Cones were sensitized with other anti-testosterone antibodies: 2 mouse monoclonal immunoglobulins G (IgG), the clones 19E10H6 and 15H9H10 (bioMerieux), which will be called Ab1 and Ab2 respectively, and 1 sheep monoclonal IgG, the clone testo3.6A3 (Bioventix), which will be called Ab3. As in the cone of the format of the reference assay, the anti-testosterone antibodies were captured by anti-species polyclonal antibodies adsorbed on the cone beforehand. It is a sheep anti-mouse IgG polyclonal antibody for Ab1 and Ab2, and a donkey anti-sheep IgG polyclonal antibody for Ab3. The anti-species antibodies are diluted to a concentration between 1 and 12 μg/ml in the sensitizing solution. After incubation for 6 h at +18/25° C., washing is carried out with saline solution. Then the solution of anti-testosterone antibodies containing a saturating agent of the protein or peptide type is added (concentration of the antibody: 0.01-0.2 μg/ml). Sensitization/passivation is continued at +18/25° C. overnight. Then the cones are emptied and dried. • The cones sensitized with the antibody Ab1 are tested with the VIDAS® conjugate, diluted to 1/2.5 for the tests with the monoclonal antibody. The cones sensitized with the antibodies Ab2 and Ab3 are tested with conjugate 1 of the invention prepared in example 9. This last-mentioned conjugate is used at a concentration of 3 ng/ml for the tests with the cones sensitized with the antibody Ab2 and 2.5 ng/ml for the cones sensitized with the antibody Ab3. • The conversion to dose is performed based on a standard 10-point range manufactured by supplementing woman's serum with testosterone in ethanolic solution. The nominal concentrations of each of the points are: 0.001 ng/ml-0.03 ng/ml-0.18 ng/ml-0.41 ng/ml-0.76 ng/ml-1.29 ng/ml-1.91 ng/ml-3.82 ng/ml-7.48 ng/ml-11.55 ng/ml. • The sample volume taken for each assay is 200 μl.
(§3) The standard range was measured with each assay format. Table 1 below summarizes the results obtained as RFV signal (relative fluorescence value) and B/B0% ratio, for the dilutions of the standard range. The ratio B/B0 is the signal obtained for the range point tested divided by the signal obtained for the range point 0.001 ng/ml of testosterone, multiplied by 100.

[2] = tested on: anti-testosterone antibody Ab2 (mouse monoclonal IgG, clone 15H9H10); experiment: VIDAS® competitive testosterone immunoassay, format Ab2 + Conjugate 1 of the invention; conditions: for B/B0% / Signal (RFV): conjugate 3 ng/ml
Protocol: as §1, §2, §3
Secondly, to confirm that the format Ab2+Conjugate 1 of the invention is far more sensitive than the reference format REF, VIDAS® Testosterone kit, for which the measurement range recommended in the instructions extends from 0.1 to 13 ng/ml, these two formats were compared against serum samples obtained from the Etablissements Français du Sang (the French National Blood Service). These were 4 samples collected from women (codes with F), for whom the serum testosterone level is below 1 ng/ml, and 2 samples collected from men (codes with M). […]

[3] = tested on: sheep anti-testosterone monoclonal antibody clone 3.6A3 (Ab3); experiment: Microplate competitive testosterone immunoassay, Ab3 + Conjugate 2 of the invention, streptavidin-peroxidase/TMB; conditions: for B/B0% / OD450-OD630: conjugate 0.2 ng/well
Protocol: 100 μl/well of the mouse anti-goat Fe IgG monoclonal antibody (clone 9A4A5, bioMerieux) diluted to 10 μg/ml in PBS buffer 1× is distributed in a 96-well microplate (Nunc Maxisorp F96). The microplate is incubated overnight at room temperature in order to obtain adsorption of the antibody. The microplate is emptied, and then 300 μl/well of passivating buffer (buffer Tris 0.2 M pH 6.2) containing a saturating agent of the protein or peptide type, and the sheep anti-testosterone monoclonal antibody clone 3.6A3 (Ab3-bioVentix) diluted to 0.2 μg/ml are added. The microplate is incubated for 1 h at 37° C. Three washings are carried out with TBS (Tris buffered saline)-Tween®-20 0.05%. The range points used in example 10 are diluted to 1/2 in Tris buffer; 100 μl of these dilutions are distributed in the wells of the plate. After incubation for 1 h at 37° C., the wells are emptied and 0.2 ng/well of Conjugate 2 of the invention testosterone-3β-EMC-DAP-biotin in Tris buffer is added. The reaction with the conjugate is carried out for 15 minutes at 37° C., and is followed by 3 washings. 100 μl/well of streptavidin-peroxidase solution (Jackson Immunoresearch Cat. No. 016-30-084) diluted to 1/20 000 in TBS-Tween®-20 0.05%, BSA 2% is added and the microplate is incubated for 30 min at 37° C. After 3 washings, 100 μl/well of the 1-step Ultra TMB substrate (Thermo Scientific, Cat. No. 34028) is added and the microplate is incubated for 5 min at room temperature, away from the light. The reaction is then stopped by adding 100 μl of 2M sulfuric acid. The optical density (OD) at 450 nm and at 630 nm is measured in a microplate reader. For each well, the optical density at 630 nm is subtracted from the optical density at 450 nm.

[4] = testosterone 0.001 ng/ml range point
[5] = testosterone 0.03 ng/ml range point
[6] = testosterone 0.18 ng/ml range point
[7] = testosterone 0.41 ng/ml range point
[8] = testosterone 0.76 ng/ml range point
[9] = testosterone 1.29 ng/ml range point
[10] = testosterone 1.91 ng/ml range point
[11] = testosterone 3.82 ng/ml range point
[12] = testosterone 7.48 ng/ml range point
[13] = testosterone 11.55 ng/ml range point
[14] = testosterone 0.001 ng/ml range point (diluted to 1/2)
[15] = testosterone 0.03 ng/ml range point (diluted to 1/2)
[16] = testosterone 0.18 ng/ml range point (diluted to 1/2)
[17] = testosterone 0.41 ng/ml range point (diluted to 1/2)
[18] = testosterone 0.76 ng/ml range point (diluted to 1/2)
[19] = testosterone 1.29 ng/ml range point (diluted to 1/2)
[20] = testosterone 3.82 ng/ml range point (diluted to 1/2)
[21] = testosterone 11.55 ng/ml range point (diluted to 1/2)

17β-Hydroxy-3β-Carboxymethoxyandrost-4-ene/Alkaline Phosphatase [Conjugate 1 of the invention]
sensitivity of the assay format (comparison of formats) ([1]; FIG. 1): most sensitive
testosterone concentration giving a 50% decrease in the signal ([1]; from graph of FIG. 1): about 0.2 ng/ml
B/B0% [1, 4]: 100%
Signal (RFV) [1, 4]: 3209 RFV
B/B0% [1, 5]: 78%
Signal (RFV) [1, 5]: 2492 RFV
B/B0% [1, 6]: 53%
Signal (RFV) [1, 6]: 1700 RFV
B/B0% [1, 7]: 44%
Signal (RFV) [1, 7]: 1403 RFV
B/B0% [1, 8]: 40%
Signal (RFV) [1, 8]: 1286 RFV
B/B0% [1, 9]: 30%
Signal (RFV) [1, 9]: 960 RFV
B/B0% [1, 10]: 31%
Signal (RFV) [1, 10]: 990 RFV
B/B0% [1, 11]: 20%
Signal (RFV) [1, 11]: 644 RFV
B/B0% [1, 12]: 12%
Signal (RFV) [1, 12]: 380 RFV
B/B0% [1, 13]: 6%
Signal (RFV) [1, 13]: 205 RFV
sensitivity of the assay format (comparison of formats) ([2]; FIG. 1): slightly more sensitive than the reference format
B/B0% [2, 4]: 100%
Signal (RFV) [2, 4]: 4077 RFV
B/B0% [2, 5]: 86%
Signal (RFV) [2, 5]: 3490 RFV
B/B0% [2, 6]: 72%
Signal (RFV) [2, 6]: 2935 RFV
B/B0% [2, 7]: 62%
Signal (RFV) [2, 7]: 2527 RFV
B/B0% [2, 8]: 55%
Signal (RFV) [2, 8]: 2238 RFV
B/B0% [2, 9]: 46%
Signal (RFV) [2, 9]: 1880 RFV
B/B0% [2, 10]: 42%
Signal (RFV) [2, 10]: 1729 RFV
B/B0% [2, 11]: 31%
Signal (RFV) [2, 11]: 1264 RFV
B/B0% [2, 12]: 22%
Signal (RFV) [2, 12]: 905 RFV
B/B0% [2, 13]: 16%
Signal (RFV) [2, 13]: 632 RFV

CC12CC[C@H](OCC(=O)NCCCNC(=O)CCCCC3SCC4NC(=O)NC43)C=C1CCC1C2CCC2(C)C(O)CCC12 (stereo partly drawn) [Conjugate 2 of the invention, 17-β-Hydroxy-3-β-Carboxymethoxyandrost-4-ene/Biotin]
character of the testosterone assay range versus format Ab2+Conjugate 1 on VIDAS® ([3]; FIG. 2): comparable
sensitivity of the microplate assay (comparison) ([3]; FIG. 2): more sensitive than the VIDAS® assays using the VIDAS® Conjugate
B/B0% [3, 14]: 100%
OD450-OD630 [3, 14]: 2.52
B/B0% [3, 15]: 83%
OD450-OD630 [3, 15]: 2.10
B/B0% [3, 16]: 74%
OD450-OD630 [3, 16]: 1.88
B/B0% [3, 17]: 64%
OD450-OD630 [3, 17]: 1.61
B/B0% [3, 18]: 54%
OD450-OD630 [3, 18]: 1.36
B/B0% [3, 19]: 40%
OD450-OD630 [3, 19]: 1.00
B/B0% [3, 20]: 17%
OD450-OD630 [3, 20]: 0.42
B/B0% [3, 21]: 7%
OD450-OD630 [3, 21]: 0.17
